The text below walks through data of patent publication US20090275727A1, “Peptide turn mimetics” (MIMETICA PTY LIMITED, priority 1998, published 2009).

Where a SMILES comes first, the peptide text is derived from it.

This data set in a line: Solubility in water noted when preparing the NMR sample. Format: physicochemical. Particulars: NMR run in 1:9 d3-TFE:H2O instead. On the procedure: To a solution of Ac-GY(tBu)LLG-OMe 229 (58 mg, 0.09 mmol) in dichloromethane (2 mL) was added TFA (2 mL) and the solution stirred at rt for 1 h. The volatiles were removed under reduced pressure, and the residue dissolved in acetonitrile (1 mL) and water (1 mL). This solution was purified by preparative HPLC, to give the purified peptide 230 (12.6 mg) as a white solid. [M+H]^+=578.8; Analytical HPLC (0-40% B over 40 min, mL/min, 214 nm): tR=25.51 min; ^1H NMR, 600 MHz, 1:9 d3-TFE:H2O. Consistent with structure.

Take `COC(=O)CNC(=O)[C@H](CC(C)C)NC(=O)[C@H](CC(C)C)NC(=O)[C@H](Cc1ccc(O)cc1)NC(=O)CNC(C)=O` [Compound 230, Ac-GYLLG-OMe] (HELM PEPTIDE1{[ac].G.Y.L.L.G.[CO[*:1]]}$$$$V2.0): the “Solubility in H2O” value is listed as “not soluble in H2O”.
